# Data taken from patent US10004701B2, “Methods and compositions for treating infection” (UNIVERSITY OF ROCHESTER, priority 2012, dated 2018).
# Where two headings read alike, the source gives them in different places.
# Experiments:
# Experiment in all cases: AK assay 384-well format, Prestwick library screening
# [1] = system: S. aureus strain USA300-0114; type: cell-based, Staphylococcus aureus; conditions: for fold induction at 50 µM: Staphylococcus aureus, USA300, 3 h
# E. coli = type: cell-based, Escherichia coli; conditions: for fold induction at 50 µM: Escherichia coli, 3 h
# E. faecium = type: cell-based, Enterococcus faecium; conditions: for fold induction at 50 µM: Enterococcus faecium, 3 h
# [2] = system: A. baumannii strain 98-37-09; type: cell-based, Acinetobacter baumannii; conditions: for fold induction at 50 µM: Acinetobacter baumannii, 983709, 3 h
# K. pneumoniae = type: cell-based, Klebsiella pneumoniae; conditions: for fold induction at 50 µM: Klebsiella pneumoniae, 3 h
# P. aeruginosa = type: cell-based, Pseudomonas aeruginosa; conditions: for fold induction at 50 µM: Pseudomonas aeruginosa, 3 h
# E. cloacae = type: cell-based, Enterobacter cloacae; conditions: for fold induction at 50 µM: Enterobacter cloacae, 3 h
# [3] = 50 μM final drug concentration, planktonic, cutoff for positive 3-fold increase
# [4] = 50 μM final drug concentration, planktonic, […]
smiles,measurement,setting,value
C[C@]12CC[C@H](O)C[C@@H]1CC[C@@H]1[C@@H]2CC[C@]2(C)C(=O)CC[C@@H]12 [Epiandrosterone],fold induction at 50 µM,"[1]; read-out: AK-based Prestwick Library Screening Results, S. aureus (increase in extracellular AK activity)",0.6
same,fold induction at 50 µM,"E. coli; read-out: AK-based Prestwick Library Screening Results, E. coli (increase in extracellular AK activity)",0.9
same,fold induction at 50 µM,"E. faecium; read-out: AK-based Prestwick Library Screening Results, E. faecium (increase in extracellular AK activity)",1
same,fold induction at 50 µM,"[2]; read-out: AK-based Prestwick Library Screening Results, A. baumannii (increase in extracellular AK activity)",0.8
same,fold induction at 50 µM,"K. pneumoniae; read-out: AK-based Prestwick Library Screening Results, K. pneumoniae (increase in extracellular AK activity)",0.7
same,fold induction at 50 µM,"P. aeruginosa; read-out: AK-based Prestwick Library Screening Results, P. aeruginosa (increase in extracellular AK activity)",0.8
same,fold induction at 50 µM,"E. cloacae; read-out: AK-based Prestwick Library Screening Results, E. cloacae (increase in extracellular AK activity)",1.1
Oc1cc(O)c2c(c1)O[C@H](c1ccc(O)c(O)c1)[C@H](O)C2 [Epicatechin-(−)],"AK-based Prestwick Library Screening Results, S. aureus (fold increase in extracellular AK activity)",[1]; [3],0.3
same,"AK-based Prestwick Library Screening Results, E. coli (fold increase in extracellular AK activity)",E. coli; [3],0.4
same,"AK-based Prestwick Library Screening Results, E. faecium (fold increase in extracellular AK activity)",E. faecium; [3],0.9
same,"AK-based Prestwick Library Screening Results, A. baumannii (fold increase in extracellular AK activity)",[2]; [3],0.3
same,"AK-based Prestwick Library Screening Results, K. pneumoniae (fold increase in extracellular AK activity)",K. pneumoniae; [3],0.4
same,"AK-based Prestwick Library Screening Results, P. aeruginosa (fold increase in extracellular AK activity)",P. aeruginosa; [3],0.3
same,"AK-based Prestwick Library Screening Results, E. cloacae (fold increase in extracellular AK activity)",E. cloacae; [3],0.3
COc1cc(C)nc(-n2nc(C)cc2OC)n1 [Epirizole],fold induction at 50 µM,"[1]; 50 μM final drug concentration, 384-well format, cutoff for positive-scoring molecules 3-fold increase, read-out: AK-based Prestwick Library Screening Results, S. aureus (increase in extracellular AK activity)",2.2
same,fold induction at 50 µM,"E. coli; 50 μM final drug concentration, 384-well format, cutoff for positive-scoring molecules 3-fold increase, read-out: AK-based Prestwick Library Screening Results, E. coli (increase in extracellular AK activity)",1
same,fold induction at 50 µM,"E. faecium; 50 μM final drug concentration, 384-well format, cutoff for positive-scoring molecules 3-fold increase, read-out: AK-based Prestwick Library Screening Results, E. faecium (increase in extracellular AK activity)",0.8
same,fold induction at 50 µM,"[2]; 50 μM final drug concentration, 384-well format, cutoff for positive-scoring molecules 3-fold increase, read-out: AK-based Prestwick Library Screening Results, A. baumannii (increase in extracellular AK activity)",0.9
same,fold induction at 50 µM,"K. pneumoniae; 50 μM final drug concentration, 384-well format, cutoff for positive-scoring molecules 3-fold increase, read-out: AK-based Prestwick Library Screening Results, K. pneumoniae (increase in extracellular AK activity)",0.7
same,fold induction at 50 µM,"P. aeruginosa; 50 μM final drug concentration, 384-well format, cutoff for positive-scoring molecules 3-fold increase, read-out: AK-based Prestwick Library Screening Results, P. aeruginosa (increase in extracellular AK activity)",0.8
same,fold induction at 50 µM,"E. cloacae; 50 μM final drug concentration, 384-well format, cutoff for positive-scoring molecules 3-fold increase, read-out: AK-based Prestwick Library Screening Results, E. cloacae (increase in extracellular AK activity)",1.2
C[C@]12C[C@H]3S[C@H]3C[C@@H]1CC[C@@H]1[C@@H]2CC[C@]2(C)[C@@H](O)CC[C@@H]12 [Epitiostanol],fold induction at 50 µM,"[1]; planktonic S. aureus, 50 μM final drug concentration, […], read-out: AK-based Prestwick library screening result, S. aureus (fold increase in extracellular AK activity)",0.9
same,fold induction at 50 µM,"E. coli; planktonic E. coli, 50 μM final drug concentration, […], read-out: AK-based Prestwick library screening result, E. coli (fold increase in extracellular AK activity)",1.2
same,fold induction at 50 µM,"E. faecium; planktonic E. faecium, 50 μM final drug concentration, […], read-out: AK-based Prestwick library screening result, E. faecium (fold increase in extracellular AK activity)",1
same,fold induction at 50 µM,"[2]; planktonic A. baumannii, 50 μM final drug concentration, […], read-out: AK-based Prestwick library screening result, A. baumannii (fold increase in extracellular AK activity)",1.1
same,fold induction at 50 µM,"K. pneumoniae; planktonic K. pneumoniae, 50 μM final drug concentration, […], read-out: AK-based Prestwick library screening result, K. pneumoniae (fold increase in extracellular AK activity)",0.9
same,fold induction at 50 µM,"P. aeruginosa; planktonic P. aeruginosa, 50 μM final drug concentration, […], read-out: AK-based Prestwick library screening result, P. aeruginosa (fold increase in extracellular AK activity)",1.1
same,fold induction at 50 µM,"E. cloacae; planktonic E. cloacae, 50 μM final drug concentration, […], read-out: AK-based Prestwick library screening result, E. cloacae (fold increase in extracellular AK activity)",1.3
CC[C@]12CCCN3CCc4c(n(c5ccccc45)[C@](O)(C(=O)OC)C1)[C@@H]32 [Epivincamine],"AK-based Prestwick Library Screening Results, S. aureus (fold increase in extracellular AK activity)",[1]; [4],1.0
same,"AK-based Prestwick Library Screening Results, E. coli (fold increase in extracellular AK activity)",E. coli; [4],1.3
same,"AK-based Prestwick Library Screening Results, E. faecium (fold increase in extracellular AK activity)",E. faecium; [4],1.0
same,"AK-based Prestwick Library Screening Results, A. baumannii (fold increase in extracellular AK activity)",[2]; [4],1.2
same,"AK-based Prestwick Library Screening Results, K. pneumoniae (fold increase in extracellular AK activity)",K. pneumoniae; [4],1.2
same,"AK-based Prestwick Library Screening Results, P. aeruginosa (fold increase in extracellular AK activity)",P. aeruginosa; [4],1.2
same,"AK-based Prestwick Library Screening Results, E. cloacae (fold increase in extracellular AK activity)",E. cloacae; [4],1.6
C[C@]12CC[C@H]3C(=CCc4cc(O)ccc43)[C@@H]1CCC2=O [Equilin],fold induction at 50 µM,"[1]; read-out: AK-based Prestwick Library Screening Results, S. aureus (fold increase in extracellular AK activity)",3.9
same,fold induction at 50 µM,"E. coli; read-out: AK-based Prestwick Library Screening Results, E. coli (fold increase in extracellular AK activity)",1.3
same,fold induction at 50 µM,"E. faecium; read-out: AK-based Prestwick Library Screening Results, E. faecium (fold increase in extracellular AK activity)",1
same,fold induction at 50 µM,"[2]; read-out: AK-based Prestwick Library Screening Results, A. baumannii (fold increase in extracellular AK activity)",1
same,fold induction at 50 µM,"K. pneumoniae; read-out: AK-based Prestwick Library Screening Results, K. pneumoniae (fold increase in extracellular AK activity)",0.9
same,fold induction at 50 µM,"P. aeruginosa; read-out: AK-based Prestwick Library Screening Results, P. aeruginosa (fold increase in extracellular AK activity)",1.1
same,fold induction at 50 µM,"E. cloacae; read-out: AK-based Prestwick Library Screening Results, E. cloacae (fold increase in extracellular AK activity)",1.4
CC(C)C[C@H]1C(=O)N2CCC[C@H]2[C@]2(O)O[C@](NC(=O)[C@@H]3C=C4c5cccc6[nH]cc(c56)C[C@H]4N(C)C3)(C(C)C)C(=O)N12 [Ergocryptine-alpha],"AK-based Prestwick Library Screening Results, S. aureus (fold increase in extracellular AK activity)",[1]; [4],0.2
same,"AK-based Prestwick Library Screening Results, E. coli (fold increase in extracellular AK activity)",E. coli; [4],0.4
same,"AK-based Prestwick Library Screening Results, E. faecium (fold increase in extracellular AK activity)",E. faecium; [4],0.7
same,"AK-based Prestwick Library Screening Results, A. baumannii (fold increase in extracellular AK activity)",[2]; [4],0.5
same,"AK-based Prestwick Library Screening Results, K. pneumoniae (fold increase in extracellular AK activity)",K. pneumoniae; [4],0.5
same,"AK-based Prestwick Library Screening Results, P. aeruginosa (fold increase in extracellular AK activity)",P. aeruginosa; [4],0.4
same,"AK-based Prestwick Library Screening Results, E. cloacae (fold increase in extracellular AK activity)",E. cloacae; [4],0.4
O=c1ccc2cc(O)c(O)cc2o1 [Esculetin],fold induction at 50 µM,"[1]; 50 μM final drug concentration, […], read-out: AK-based Prestwick Library Screening Results, S. aureus (fold increase in extracellular AK activity)",1.1
same,fold induction at 50 µM,"E. coli; 50 μM final drug concentration, […], read-out: AK-based Prestwick Library Screening Results, E. coli (fold increase in extracellular AK activity)",1.4
same,fold induction at 50 µM,"E. faecium; 50 μM final drug concentration, […], read-out: AK-based Prestwick Library Screening Results, E. faecium (fold increase in extracellular AK activity)",1
same,fold induction at 50 µM,"[2]; 50 μM final drug concentration, […], read-out: AK-based Prestwick Library Screening Results, A. baumannii (fold increase in extracellular AK activity)",1.1
same,fold induction at 50 µM,"K. pneumoniae; 50 μM final drug concentration, […], read-out: AK-based Prestwick Library Screening Results, K. pneumoniae (fold increase in extracellular AK activity)",1.2
same,fold induction at 50 µM,"P. aeruginosa; 50 μM final drug concentration, […], read-out: AK-based Prestwick Library Screening Results, P. aeruginosa (fold increase in extracellular AK activity)",0.9
same,fold induction at 50 µM,"E. cloacae; 50 μM final drug concentration, […], read-out: AK-based Prestwick Library Screening Results, E. cloacae (fold increase in extracellular AK activity)",1.4
O=c1ccc2cc(O[C@@H]3O[C@H](CO)[C@@H](O)[C@H](O)[C@H]3O)c(O)cc2o1 [Esculin Hydrate],fold induction at 50 µM,"[1]; 50 μM final drug concentration, planktonic, […], read-out: AK-based Prestwick Library Screening Results, S. aureus (fold increase in extracellular AK activity)",0.7
same,fold induction at 50 µM,"E. coli; 50 μM final drug concentration, planktonic, […], read-out: AK-based Prestwick Library Screening Results, E. coli (fold increase in extracellular AK activity)",0.7
same,fold induction at 50 µM,"E. faecium; 50 μM final drug concentration, planktonic, […], read-out: AK-based Prestwick Library Screening Results, E. faecium (fold increase in extracellular AK activity)",0.9
same,fold induction at 50 µM,"[2]; 50 μM final drug concentration, planktonic, […], read-out: AK-based Prestwick Library Screening Results, A. baumannii (fold increase in extracellular AK activity)",0.8
same,fold induction at 50 µM,"K. pneumoniae; 50 μM final drug concentration, planktonic, […], read-out: AK-based Prestwick Library Screening Results, K. pneumoniae (fold increase in extracellular AK activity)",0.6
same,fold induction at 50 µM,"P. aeruginosa; 50 μM final drug concentration, planktonic, […], read-out: AK-based Prestwick Library Screening Results, P. aeruginosa (fold increase in extracellular AK activity)",0.8
same,fold induction at 50 µM,"E. cloacae; 50 μM final drug concentration, planktonic, […], read-out: AK-based Prestwick Library Screening Results, E. cloacae (fold increase in extracellular AK activity)",0.9
"CNC(=O)Oc1ccc2c(c1)[C@]1(C)CCN(C)[C@@H]1N2C.CNC(=O)Oc1ccc2c(c1)[C@]1(C)CCN(C)[C@@H]1N2C.O=S(=O)(O)O [Eserine sulfate, physostigmine sulfate]","AK-based Prestwick Library Screening Results, S. aureus (increase in extracellular AK activity)","[1]; planktonic S. aureus, 50 μM final drug concentration, […]",0.4
same,"AK-based Prestwick Library Screening Results, E. coli (increase in extracellular AK activity)","E. coli; planktonic E. coli, 50 μM final drug concentration, […]",0.7
same,"AK-based Prestwick Library Screening Results, E. faecium (increase in extracellular AK activity)","E. faecium; planktonic E. faecium, 50 μM final drug concentration, […]",0.9
same,"AK-based Prestwick Library Screening Results, A. baumannii (increase in extracellular AK activity)","[2]; planktonic A. baumannii, 50 μM final drug concentration, […]",0.5
same,"AK-based Prestwick Library Screening Results, K. pneumoniae (increase in extracellular AK activity)","K. pneumoniae; planktonic K. pneumoniae, 50 μM final drug concentration, […]",0.5
same,"AK-based Prestwick Library Screening Results, P. aeruginosa (increase in extracellular AK activity)","P. aeruginosa; planktonic P. aeruginosa, 50 μM final drug concentration, […]",0.6
same,"AK-based Prestwick Library Screening Results, E. cloacae (increase in extracellular AK activity)","E. cloacae; planktonic E. cloacae, 50 μM final drug concentration, […]",0.7
